Assay results reported in publication PMC13095444, “Discovery of RGS2-FBXO44 interaction inhibitors using a cell-based NanoBit assay” (Molecular Pharmacology, 2025).

Tests used:
[1] = system: HEK-293T-RGS2-FBXO44 NanoBit cells; test: Cell viability assay (GF-AFC fluorescence) multiplexed with NanoBit; type: cell-based, Human; details: 100 μM, 16–18 hours, fresh powder
Method: The cells were plated in DMEM without phenol red (Gibco, #21063), 0.1% BSA in a white, tissue culture-treated 384-well plate (Perkin Elmer) at 15,000 cells/well, unless indicated otherwise, and allowed to attach. The plate was centrifuged at 212 × g for 30 seconds to aid in even cell adherence. Compound treatments were initiated 4–5 hours after plating. Following indicated treatment times, media was removed from the plate using BioTek ELx405 plate washer. Additionally, 10 μL of Hank’s Balanced Salt solution (HBSS) with 0.1% BSA was added to each well, followed by 5 μL of glycyl-phenylalanyl-aminofluorocoumarin (GF-AFC; MP Biomedicals) diluted 1:1000 in 100 mM HEPES. Plates were then centrifuged at 212 × g for 30 seconds and then incubated at 37 °C for 30 minutes. Fluorescence was detected on a Synergy Neo2 multimode plate reader (BioTek/Agilent).
Our primary assay using the HEK-293T RGS2-FBXO44 NanoBit cell line was extensively optimized to ensure maximum quality for screening. Coupling a fluorescent cell viability assay with our screen would allow us to rule out cytotoxic compounds while also hopefully reducing outliers from pipetting errors while plating cells. Thus, we multiplexed our NanoBit assay with cell viability using a cell-permeable fluorogenic protease substrate (glycyl-phenylalanyl-aminofluorocoumarin; GF-AFC; [Niles et al, 2007]), which can be combined with a luminescent readout without interfering with the luciferase signal. We previously utilized a similar multiplexing strategy in several screens ([Sjögren et al, 2012]; [Raveh et al, 2014]; [Sjögren et al, 2015]). We assessed and optimized treatment conditions (time, temperature, and reagent volume), cell density, buffer composition, and DMSO tolerance. In addition to the supplied proprietary LCS buffer (Promega), we also tested DMEM, 0.1% BSA, PBS, and HBSS (Supplemental Fig. 1A–C). […] The luminescent signal was stable up to 45 minutes after reagent addition, and we chose to run subsequent assays using 20 minutes of incubation time (Supplemental Fig. 1E). We also observed no effect on either viability or luminescence signal at DMSO concentrations <1% (Data not shown).
HEK-293T-RGS2-FBXO44 NanoBit cells were treated for 16–18 hours with compound at 100 μM. This relatively high concentration was chosen because of the challenging nature of our assay (intracellular PPI inhibition). Parental HEK-293T cells were used as a negative control. […] Based on these criteria, 97 compounds were identified as hits from our primary screen (6.1% initial hit rate). To confirm hits, the same assay was repeated in triplicate, which delivered 34 compounds that reached the threshold for inhibition in at least 2 replicates with <25% cell toxicity (Fig. 2C; Supplemental Table 1), thus rendering a final hit rate of 2.1%.

RGS2 = target: T1, RGS2 (Homo sapiens, UniProt P41220); test: Cellular thermal shift assay (CETSA), RGS2-HA; type: binding; details: 100 μM overnight (16–18 hours); gradient 40–60 °C; vs DMSO
T1 construct: Because both full-length RGS2 and FBXO44 are extremely difficult to express as recombinant proteins, we opted for a cell-based method; expressed in transfected cells; host or cells: HEK-293T, transient transfection
T1 sequence (P41220 1-211): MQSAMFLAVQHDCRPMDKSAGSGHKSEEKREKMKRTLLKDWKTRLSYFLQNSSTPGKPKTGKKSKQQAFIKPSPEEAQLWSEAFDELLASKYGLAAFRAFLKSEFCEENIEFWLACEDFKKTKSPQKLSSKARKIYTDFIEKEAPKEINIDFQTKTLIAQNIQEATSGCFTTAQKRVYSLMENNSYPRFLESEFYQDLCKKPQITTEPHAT
Method: (§1) The cells in 100 mm dishes were harvested by trypsination in reduced serum media and transferred to 15 mL conical tubes. The cells were centrifuged at 300 × g for 3 minutes. Media was removed, and the cell pellet was washed with 10 mL of PBS. The cells were then resuspended in 500 μL of PBS and aliquoted into polymerase chain reaction (PCR) tubes. The cells were then heated in a PCR gradient (40–60 °C) for 3 minutes and then transferred to a 25 °C PCR block for 3 minutes. Following this, cells were immediately flash-frozen using liquid nitrogen. The cells were freeze-thawed 3 times to lyse the cells and then spun down at 20,000 × g for 20 minutes. The supernatant was then added to sample buffer and heated for 5 minutes at 95 °C before SDS-PAGE and western blot analysis.
(§2) We next assessed whether the action of compound 10 to inhibit the RGS2-FBXO44 interaction is through direct binding to either protein. […] The cells were lysed and analyzed by western blot to determine melting temperatures (Tm). […] We also assessed the effect of compound 10 on the Tm for RGS4, which is closely related to RGS2 and also subject to proteasomal degradation, however, independent of FBXO44 ([Lee et al, 2005]; [Sjögren et al, 2015]).

RGS4 = target: T2, RGS4 (Homo sapiens, UniProt P49798); test: Cellular thermal shift assay (CETSA), RGS4-HA; type: binding; details: 100 μM overnight (16–18 hours); gradient 40–60 °C; vs DMSO
T2 construct: expressed in transfected cells; host or cells: HEK-293T, transient transfection
T2 sequence (P49798 whole entry, species assumed): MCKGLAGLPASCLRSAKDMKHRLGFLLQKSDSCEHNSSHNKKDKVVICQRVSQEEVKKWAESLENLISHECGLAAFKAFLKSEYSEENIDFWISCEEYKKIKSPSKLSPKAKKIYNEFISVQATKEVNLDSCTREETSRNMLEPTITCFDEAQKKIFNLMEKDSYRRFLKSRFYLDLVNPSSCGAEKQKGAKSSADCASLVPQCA
Method: as §1, §2

Increase in the Tm for RGS2 (RGS2): 2.4 °C
Effect on the Tm for RGS4 (RGS4): no significant effect
Structure (SMILES): CCC1CCCCN1S(=O)(=O)c1cc(Br)ccc1OC (stereo not drawn) [Compound 10]
Viability (% of Control) [1]: 69.3∗∗∗∗ % of Control
